Reference: patent publication US20060121449A1, “Method for selection of compounds which inhibit clonal cell growth and use thereof” (priority 2002, published 2006)
Entries after “also recorded” stand apart in the source; their conditions may differ.

Tests used:
[1] = test system: polyoma virus transformed BHK21/c13 cells, line S100T1; assay: Collocation inhibition test: clonal growth in sparsely and densely seeded areas of a cell density gradient of S100T1 cells in soft agar (Exp 13, 17, 19-26); settings: for Significance: Exp 17 day 14;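 on Clonal growth, H high density area of cell gradient, High: grades rise with clonal growth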;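 on Clonal growth, H high density area of cell gradient, Low: grades rise with clonal growth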;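 on Clonal growth, H high density area of cell gradient, Medium: grades rise with clonal growth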;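 on Clonal growth, L low density area of cell gradient, High: grades rise with clonal growth and minus or plus-minus means none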;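 on Clonal growth, L low density area of cell gradient, Low: grades rise with clonal growth and minus or plus-minus means none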;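 on Clonal growth, L low density area of cell gradient, Medium: grades rise with clonal growth and minus or plus-minus means none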;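 on all read-outs here: soft agar cultures in 24-well plates with a cell density gradient in the top layer, compounds applied from DMSO stocks, clonal growth scored in sparse versus dense areas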
Protocol: The cells should be grown in a top agar layer to avoid growth on the bottom surface. […] Both densely seeded and sparsely seeded areas were photographed.
Cells: The polyoma virus transformed offspring of BHK21/c13, S100T1, was grown on 75 cm^2 flasks on Eagles medium with 5% foetal calf serum. […] Foetal calf serum (0.7 ml) was added to each harvest. After low speed centrifugation the supernatant was discarded and the cells were dispersed in 1 ml FBS.
The concentration of ultra low gelling temperature agarose (Sigma) of the top agar layer with cells was also 0.8%. […] The addition of cells was performed at the same side of the wells in order to create similar cell density gradients. Finally the top layer agar was consolidated in the refrigerator.
After that it was incubated at 37 degrees in 5% CO2 atmosphere.
Agar cultures were prepared in Falcon 24 well tissue culture plate. Each well contained two agar layers of 0.3 ml.
Agar cultures were prepared in wells of Falcon 24 well tissue culture plate. Each contained two agar layers of 0.3 ml. […] The medium contained Eagles MEM and 10% foetal bovine serum (FBS).
The compounds were first solved in DMSO in 20 mM concentration and then diluted in medium. The top layer needed 60-90 minutes in the refrigerator for solidification before incubation in 37° C. with 5% CO2 atmosphere.
In this experiment the inhibitor was added to the bottom layer in order to get an easier way for making the cell density gradient. One side of the Falcon 24 well plate was elevated 12 degrees in the refrigerator for 60-90 minutes to solidify the bottom layer in an oblique position When then solidifying the cell containing top soft agar layer in horizontal position, the cell gradient constantly became good across the well. […] Another 90 minutes were spent in the refrigerator to consolidate the soft agar layer with cells in a horizontal position. Both layers contained 0.8% agarose, Eagles MEM and 10% FBS.
Tilting the plate 12 degrees when solidifying the bottom layer with the drug and casting the top layer with cells horizontally made a stable cell gradient.
The indicated compounds were added to soft agar cultures of the polyoma virus transformed cell line S100T1 of BHK21/c13 cells (Table 1). Agar cultures were prepared in wells of a Falcon 24 well tissue culture plate. The wells contained two agar layers of 0.3 ml. […] The bottom medium was identical, but without cells.
The compounds were first solved in DMSO in 20 mM concentration and then diluted in bottom medium. The agar layers needed 60-90 minutes in the refrigerator for consolidation before incubation at 37° C. in 5% CO2 atmosphere.

[2] = test system: polyoma virus transformed BHK21/c13 cells, clone S100T1; assay: Clonal test: clonal growth of S100T1 cells in soft agar (Exp 2, 4, 6, 15, 16); format: cell-based, hamster
[3] = preliminary results, Exp 13-18, 21-26, high concentration
[4] = preliminary results, Exp 13-18, 21-26, low concentration
[5] = preliminary results, Exp 13-18, 21-26, medium concentration
[6] = Exp 15, 32000 S100T1 cells/well

Structure (SMILES): COc1cc([C@@H]2c3cc4c(cc3[C@H](O)[C@H]3COC(=O)[C@H]23)OCO4)cc(OC)c1OC [Podophyllotoxin]
- Effect on growth in high- and low-density areas ([1]; Exp 17, 144000 S100T1 cells/well): growth inhibition of both high and low-density areas; also recorded: significant inhibition of growth in crowded areas
- Clonal growth, results read on the day 14 ([1]; Exp 17, a: close to densely seeded cell areas, High: Colchicine 1, Podophyllotoxin 3, Etoposide 200, 4-OH—OPB 6.7 μM in wells, DMSO 29.2 μl): (+)
- Clonal growth, results read on the day 14 ([1]; Exp 17, a: close to densely seeded cell areas, Low: Colchicine 0.1, Podophyllotoxin 0.3, Etoposide 20, 4-OH—OPB 0.67 μM in wells, DMSO 1.16 μl): (+
- Clonal growth, results read on the day 14 ([1]; Exp 17, a: close to densely seeded cell areas, Medium: Colchicine 0.3, Podophyllotoxin 0.9, Etoposide 60, 4-OH—OPB 2 μM in wells, DMSO 6.8 μl): (+
- Clonal growth, results read on the day 14 ([1]; Exp 17, b: sparsely seeded areas in the same agar culture, High: Colchicine 1, Podophyllotoxin 3, Etoposide 200, 4-OH—OPB 6.7 μM in wells, DMSO 29.2 μl): (+)
- Clonal growth, results read on the day 14 ([1]; Exp 17, b: sparsely seeded areas in the same agar culture, Low: Colchicine 0.1, Podophyllotoxin 0.3, Etoposide 20, 4-OH—OPB 0.67 μM in wells, DMSO 1.16 μl): +
- Clonal growth, results read on the day 14 ([1]; Exp 17, b: sparsely seeded areas in the same agar culture, Medium: Colchicine 0.3, Podophyllotoxin 0.9, Etoposide 60, 4-OH—OPB 2 μM in wells, DMSO 6.8 μl): +
- Clones in sparsely seeded locations of the agar ([1]; Exp 17, compared with 4-OH-OPB): allow the growth of a few small clones in sparsely seeded locations of the agar; also recorded: to allow the growth of a few small clones in sparsely
- Significance ([1]; a: close to densely seeded cell areas, High: Colchicine 1, Podophyllotoxin 3, Etoposide 200, 4-OH—OPB 6.7 μM in wells, DMSO 29.2 μl): Possible
- Significance ([1]; a: close to densely seeded cell areas, Low: Colchicine 0.1, Podophyllotoxin 0.3, Etoposide 20, 4-OH—OPB 0.67 μM in wells, DMSO 1.16 μl): Doubtful
- Significance ([1]; a: close to densely seeded cell areas, Medium: Colchicine 0.3, Podophyllotoxin 0.9, Etoposide 60, 4-OH—OPB 2 μM in wells, DMSO 6.8 μl): Doubtful
- Significance ([1]; b: sparsely seeded areas, High: Colchicine 1, Podophyllotoxin 3, Etoposide 200, 4-OH—OPB 6.7 μM in wells, DMSO 29.2 μl): Possible
- Significance ([1]; b: sparsely seeded areas, Low: Colchicine 0.1, Podophyllotoxin 0.3, Etoposide 20, 4-OH—OPB 0.67 μM in wells, DMSO 1.16 μl): No
- Significance ([1]; b: sparsely seeded areas, Medium: Colchicine 0.3, Podophyllotoxin 0.9, Etoposide 60, 4-OH—OPB 2 μM in wells, DMSO 6.8 μl): No
- Control of metastatic cells leaving tumour ([1]; ability of cells to leave a tumour, grow and infiltrate locally or grow in sparsely seeded areas, concluded from Exp 17): probably not
- Clonal growth, H high density area of cell gradient, High [1, 3]: (+)
- Clonal growth, L low density area of cell gradient, High [1, 3]: (+)
- Clonal growth, H high density area of cell gradient, Low [1, 4]: (+
- Clonal growth, L low density area of cell gradient, Low [1, 4]: +
- Clonal growth, H high density area of cell gradient, Medium [1, 5]: (+
- Clonal growth, L low density area of cell gradient, Medium [1, 5]: +
- Effect on cell cloning in soft agar ([1]; preliminary results, in words): cytotoxic
- Control of settlement of metastatic cells ([1]; single cells or very few cells spread to distant sites, concluded from Exp 17): partly
- Toxicity for body or dense cell populations ([1]; supposed main advantages or disadvantages if used in cancer treatment, concluded from Exp 17): yes
- Tolerating long duration of treatment ([1]; supposed, if used in cancer treatment): no
- Effect on clonal growth at 0.03 μM [2, 6]: no significant inhibition
- Effect on clonal growth at 0.3 μM [2, 6]: inhibited significantly
- Concentration inhibiting clones significantly ([2]; Exp 16): More than 0.065 μM Podophyllotoxin inhibited clones
- Colony inhibiting activity for dosage within a range that might be therapeutic ([2]; Exp 16, about 40000 S100T1 cells/well): the same activity possibly existed
- Significance ([2]; Exp 16 day 14, Podophyllotoxin No 5 (lot 12K1562, solved in DMSO 8 days beforehand, stored frozen), 0.3 μM): probable
- Growth ([2]; Exp 16 day 14, Podophyllotoxin No 5 (lot 12K1562, solved in DMSO 8 days beforehand, stored frozen), 0.3 μM in wells): (+))
- Growth ([2]; Exp 16 day 14, Podophyllotoxin No 5 (lot 12K1562, solved in DMSO 8 days beforehand, stored frozen), 3 μM in wells): (+))
- Significance ([2]; Exp 16 day 14, Podophyllotoxin No 5 (lot 12K1562, solved in DMSO 8 days beforehand, stored frozen), 3 μM, ” = as line above): ” and probable and prob-
- Significance ([2]; Exp 16 day 14, Podophyllotoxin No 6 (lot 12K1562, solved in DMSO the same day), 0.03 μM): no
- Significance ([2]; Exp 16 day 14, Podophyllotoxin No 6 (lot 12K1562, solved in DMSO the same day), 0.065 μM): possible
- Growth ([2]; Exp 16 day 14, Podophyllotoxin No 6 (lot 12K1562, solved in DMSO the same day), 0.065 μM in wells): (+)
- Significance ([2]; Exp 16 day 14, Podophyllotoxin No 7 (lot 12K1562, solved in DMSO the same day), 0.139 μM): probable
- Growth ([2]; Exp 16 day 14, Podophyllotoxin No 7 (lot 12K1562, solved in DMSO the same day), 0.139 μM in wells): (+))
- Growth ([2]; Exp 16 day 14, Podophyllotoxin No 7 (lot 12K1562, solved in DMSO the same day), 0.3 μM in wells): (+)
- Significance ([2]; Exp 16 day 14, Podophyllotoxin No 7 (lot 12K1562, solved in DMSO the same day), 0.3 μM, ” = as line above): ” and possible
- Significance ([2]; Exp 16 day 21, Podophyllotoxin No 5 (lot 12K1562, solved in DMSO 8 days beforehand, stored frozen), 0.3 μM): doubtful
- Growth ([2]; Exp 16 day 21, Podophyllotoxin No 5 (lot 12K1562, solved in DMSO 8 days beforehand, stored frozen), 0.3 μM in wells): (+
- Significance ([2]; Exp 16 day 21, Podophyllotoxin No 5 (lot 12K1562, solved in DMSO 8 days beforehand, stored frozen), 3 μM): probable
- Growth ([2]; Exp 16 day 21, Podophyllotoxin No 5 (lot 12K1562, solved in DMSO 8 days beforehand, stored frozen), 3 μM in wells): (+))
- Significance ([2]; Exp 16 day 21, Podophyllotoxin No 6 (lot 12K1562, solved in DMSO the same day), 0.03 μM): no
- Growth ([2]; Exp 16 day 21, Podophyllotoxin No 6 (lot 12K1562, solved in DMSO the same day), 0.03 μM in wells): ++
- Significance ([2]; Exp 16 day 21, Podophyllotoxin No 6 (lot 12K1562, solved in DMSO the same day), 0.065 μM): doubtful
- Growth ([2]; Exp 16 day 21, Podophyllotoxin No 6 (lot 12K1562, solved in DMSO the same day), 0.065 μM in wells): (+
- Significance ([2]; Exp 16 day 21, Podophyllotoxin No 7 (lot 12K1562, solved in DMSO the same day), 0.139 μM): doubtful
- Growth ([2]; Exp 16 day 21, Podophyllotoxin No 7 (lot 12K1562, solved in DMSO the same day), 0.139 μM in wells): (+
- Significance ([2]; Exp 16 day 21, Podophyllotoxin No 7 (lot 12K1562, solved in DMSO the same day), 0.3 μM): possible
- Growth ([2]; Exp 16 day 21, Podophyllotoxin No 7 (lot 12K1562, solved in DMSO the same day), 0.3 μM in wells): (+)
